This note sets out measurements from patent US20220048893A1, “Compounds for Treating Neurodegenerative Diseases and Cancers” (Hongyi & Associates LLC, priority 2019, published 2022).

The series can be described thus: In vivo PK study, oral, plasma and brain. Details: species or system Sprague Dawley rats; AUC(0-t) / AUC(0-inf): concentration or dose not given beside the values. To be noted: for brain permeability compared to Nilotinib and Imatinib: in vivo PK studies; for Kp / AUC(0-inf) / AUC(0-t) / Cmax / Tmax / half-life: rat, oral, Sprague Dawley rats; for Kp: brain and plasma, read-out: AUC(0-t) Brain/ AUC(0-t) plasma. As for the experimental part: In the PK profiling study, Compounds 1 and 2 were administered orally to three Sprague Dawley rats. The animals were fasted overnight before drug administration. The food supply were resumed 4 hrs post dose. Blood samples were collected at 8 time points after dose: 0.25 h, 0.5 h, 1 h, 2 h, 4 h, 6 h, 8 h and 24 h. There are three samples for each time point. Brain tissues were collected after 24 hour blood sample collection. Drug concentrations in blood and brain were analyzed by LC-MS/MS. The analytical results were confirmed using quality control samples for intra-assay variation. The accuracy of >66.7% of the quality control samples should be between 80-120% of the known values. Standard set of parameters including area under the curve (AUC(0-t) and AUC(0-∞)), elimination half-life (T1/2), maximum plasma concentration (Cmax), time to reach maximum plasma concentration (Tmax) were calculated using noncompartmental analysis modules in FDA certified pharmacokinetic program Phoenix WinNonlin 7.0 (Pharsight, USA). The ratio of brain to plasma concentration were calculated by the concentration in brain tissue versus the concentration in plasma.

As to `Cc1ccc(C(=O)Nc2ccc(CC(C)N(C)C)cc2)cc1Nc1ccnc(-c2cccnc2)n1` (stereo not drawn) [Compound 1, N-(4-(2-(dimethylamino)propyl)phenyl)-4-methyl-3-((2-(pyridin-3-yl)pyrimidin-4-yl)amino)benzamide], the “brain permeability compared to Nilotinib and Imatinib” value was “much improved brain permeability”; the Kp was 0.121. Also, where the note is “Brain”, the area under the curve AUC(0-inf) was found to be 8740 ng·h/mL, the area under the curve AUC(0-t) is 7720 ng·h/mL, the Cmax worked out at 557 ng/mL and the Tmax worked out at 6 h. In addition, the half-life (Brain) was 7.1 h. Moreover, for the setting “Plasma”, the AUC(0-inf) is 65400 ng·h/mL, the AUC(0-t) came to 64000 ng·h/mL, the concentration peaked (Cmax) at 6680 ng/mL and the time to peak (Tmax) worked out at 4 h. The same compound gave a half-life (Plasma) of 3.98 h.

For the compound `Cc1ccc(C(=O)Nc2ccc(C3CCN(C)CC3)cc2)cc1Nc1ccnc(-c2cccnc2)n1` [Compound 2, 4-methyl-N-(4-(1-methylpiperidin-4-yl)phenyl)-3-((2-(pyridin-3-yl)pyrimidin-4-yl)amino)benzamide], the “brain permeability compared to Nilotinib and Imatinib” value is recorded as “much improved brain permeability”; the Kp was determined as 0.142. Besides, where the note is “Brain”, the area under the curve AUC(0-inf) was 25600 ng·h/mL, the AUC(0-t) was 13100 ng·h/mL, the highest concentration (Cmax) came to 796 ng/mL and the Tmax is 6 h. The half-life (Brain) is 20.2 h. Where the note is “Plasma”, the AUC(0-inf) came out at 219000 ng·h/mL, the AUC(0-t) was determined as 92000 ng·h/mL, the peak level (Cmax) was 5380 ng/mL and the Tmax worked out at 6 h. Also, the half-life (Plasma) is 26.8 h.
